Data on 32 sequences can be found in the supplement of paper PMC11208160.

The nature of this series: recombinant barcode read abundance after kanamycin selection (control-corrected) (log10(CPM+1)); higher = more efficient recombination; sequences stand for … in AGTGCAGAGAAAATCGGCCAGTTTTCTCTGCCTGCAGTCCGCATGCCGT…ATTTATGCAGCGGACTGCCTTTCTCCCAAAGTGATAAACCGGACAGTATCATGGACCGGTTTTCCCGGTAATCCGTATTTGCAAGGTTGGTTTCACT; site = the 11-nt target. How it is done: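 Same pooled E. coli target screen (IS621 bridge recombinase, kanamycin selection, control-corrected CPM, mean of 2 biological replicates). Here the two core-binding nucleotides of the LTG and RTG of the bridge RNA target-binding loop are mutated. Target and donor CT cores are held constant, and the other 9 guide positions match the target. The target is read from the library oligo sequence. Molecule = full bridge RNA written as DNA: nt 1-80 from the library oligo, rest WT scaffold.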
Regarding “AGGAGGTCTTGGGTTCTAACCTGTTGCCTTT [AGGAGGTCTAG_LTGcore_CT_RTGcore_AA] (site AGGAGGTCTAG) (LTG core: CT, RTG core: AA)”, the “recombinant barcode read abundance (log10)” value stood at 1.32.

Regarding “AGGAGGTGGTGGGTTCTAACCTGTTGCCTAG [AGGAGGTCTAG_LTGcore_GG_RTGcore_CT] (site AGGAGGTCTAG) (LTG core: GG, RTG core: CT)”, the “recombinant barcode read abundance (log10)” value amounted to 0.165.

On to “AGGAGGTGTTGGGTTCTAACCTGTTGCCTAG [AGGAGGTCTAG_LTGcore_GT_RTGcore_CT] (site AGGAGGTCTAG) (LTG core: GT, RTG core: CT)”, for which the “recombinant barcode read abundance (log10)” value stood at 0.

“AGGCCTCAATGGGTTCTAACCTGTTGCCTAG [AGGCCTCCTAG_LTGcore_AA_RTGcore_CT] (site AGGCCTCCTAG) (LTG core: AA, RTG core: CT)”: the “recombinant barcode read abundance (log10)” value turned out to be 0.0132.

Take “AGGCCTCCATGGGTTCTAACCTGTTGCCTTG [AGGCCTCCTAG_LTGcore_CA_RTGcore_CA] (site AGGCCTCCTAG) (LTG core: CA, RTG core: CA)”: the “recombinant barcode read abundance (log10)” value is 0.128.

Take “AGGCCTCCTTGGGTTCTAACCTGTTGCCTAT [AGGCCTCCTAG_LTGcore_CT_RTGcore_AT] (site AGGCCTCCTAG) (LTG core: CT, RTG core: AT)”: the “recombinant barcode read abundance (log10)” value worked out at 0.576.

With “AGGCCTCCTTGGGTTCTAACCTGTTGCCTCT [AGGCCTCCTAG_LTGcore_CT_RTGcore_AG] (site AGGCCTCCTAG) (LTG core: CT, RTG core: AG)”, the “recombinant barcode read abundance (log10)” value was found to be 0.369.

Regarding “AGGCCTCCTTGGGTTCTAACCTGTTGCCTTC [AGGCCTCCTAG_LTGcore_CT_RTGcore_GA] (site AGGCCTCCTAG) (LTG core: CT, RTG core: GA)”, the “recombinant barcode read abundance (log10)” value is 0.109.

Regarding “AGGCCTCGCTGGGTTCTAACCTGTTGCCTGC [AGGCCTCCTAG_LTGcore_GC_RTGcore_GC] (site AGGCCTCCTAG) (LTG core: GC, RTG core: GC)”, the “recombinant barcode read abundance (log10)” value is 0.137.

For the sequence “AGGCCTCTATGGGTTCTAACCTGTTGCCTAG [AGGCCTCCTAG_LTGcore_TA_RTGcore_CT] (site AGGCCTCCTAG) (LTG core: TA, RTG core: CT)”, the “recombinant barcode read abundance (log10)” value was determined as 0.0484.

For “AGGCCTCTCTGGGTTCTAACCTGTTGCCTAG [AGGCCTCCTAG_LTGcore_TC_RTGcore_CT] (site AGGCCTCCTAG) (LTG core: TC, RTG core: CT)”, the “recombinant barcode read abundance (log10)” value is 0.137.

Regarding “AGGCGGGACTGGGTTCTAACCTGTTGCGGAG [AGGCGGGCTCC_LTGcore_AC_RTGcore_CT] (site AGGCGGGCTCC) (LTG core: AC, RTG core: CT)”, the “recombinant barcode read abundance (log10)” value turned out to be 0.555.

For “AGGCGGGACTGGGTTCTAACCTGTTGCGGGT [AGGCGGGCTCC_LTGcore_AC_RTGcore_AC] (site AGGCGGGCTCC) (LTG core: AC, RTG core: AC)”, the “recombinant barcode read abundance (log10)” value is 0.011.

Regarding “AGGCGGGCCTGGGTTCTAACCTGTTGCGGGG [AGGCGGGCTCC_LTGcore_CC_RTGcore_CC] (site AGGCGGGCTCC) (LTG core: CC, RTG core: CC)”, the “recombinant barcode read abundance (log10)” value worked out at 0.126.

“AGGCGGGCTTGGGTTCTAACCTGTTGCGGAC [AGGCGGGCTCC_LTGcore_CT_RTGcore_GT] (site AGGCGGGCTCC) (LTG core: CT, RTG core: GT)”: the “recombinant barcode read abundance (log10)” value is 0.13.

In the case of “AGGCGGGCTTGGGTTCTAACCTGTTGCGGAT [AGGCGGGCTCC_LTGcore_CT_RTGcore_AT] (site AGGCGGGCTCC) (LTG core: CT, RTG core: AT)”, the “recombinant barcode read abundance (log10)” value is 0.513.

As to “AGGCGGGCTTGGGTTCTAACCTGTTGCGGCG [AGGCGGGCTCC_LTGcore_CT_RTGcore_CG] (site AGGCGGGCTCC) (LTG core: CT, RTG core: CG)”, the “recombinant barcode read abundance (log10)” value stood at 0.146.

Regarding “AGGCGGGCTTGGGTTCTAACCTGTTGCGGGA [AGGCGGGCTCC_LTGcore_CT_RTGcore_TC] (site AGGCGGGCTCC) (LTG core: CT, RTG core: TC)”, the “recombinant barcode read abundance (log10)” value was 0.253.

“AGGCGGGCTTGGGTTCTAACCTGTTGCGGTC [AGGCGGGCTCC_LTGcore_CT_RTGcore_GA] (site AGGCGGGCTCC) (LTG core: CT, RTG core: GA)”: the “recombinant barcode read abundance (log10)” value was 0.246.

Turning to “AGGCGGGGATGGGTTCTAACCTGTTGCGGTC [AGGCGGGCTCC_LTGcore_GA_RTGcore_GA] (site AGGCGGGCTCC) (LTG core: GA, RTG core: GA)”, the “recombinant barcode read abundance (log10)” value amounted to 0.133.

Regarding “AGGCGGGGGTGGGTTCTAACCTGTTGCGGAG [AGGCGGGCTCC_LTGcore_GG_RTGcore_CT] (site AGGCGGGCTCC) (LTG core: GG, RTG core: CT)”, the “recombinant barcode read abundance (log10)” value stood at 0.101.

As for “AGGCGGGGTTGGGTTCTAACCTGTTGCGGAG [AGGCGGGCTCC_LTGcore_GT_RTGcore_CT] (site AGGCGGGCTCC) (LTG core: GT, RTG core: CT)”, the “recombinant barcode read abundance (log10)” value was 0.871.

For the sequence “AGGCGGGTATGGGTTCTAACCTGTTGCGGTA [AGGCGGGCTCC_LTGcore_TA_RTGcore_TA] (site AGGCGGGCTCC) (LTG core: TA, RTG core: TA)”, the “recombinant barcode read abundance (log10)” value worked out at 0.364.

Consider “AGGCGGGTTTGGGTTCTAACCTGTTGCGGAA [AGGCGGGCTCC_LTGcore_TT_RTGcore_TT] (site AGGCGGGCTCC) (LTG core: TT, RTG core: TT)”, for which the “recombinant barcode read abundance (log10)” value was determined as 0.299.

As for “AGGCGGTAATGGGTTCTAACCTGTTGCTTAG [AGGCGGTCTAA_LTGcore_AA_RTGcore_CT] (site AGGCGGTCTAA) (LTG core: AA, RTG core: CT)”, the “recombinant barcode read abundance (log10)” value worked out at 0.371.

For the sequence “AGGCGGTAATGGGTTCTAACCTGTTGCTTTT [AGGCGGTCTAA_LTGcore_AA_RTGcore_AA] (site AGGCGGTCTAA) (LTG core: AA, RTG core: AA)”, the “recombinant barcode read abundance (log10)” value was 0.0996.

As for “AGGCGGTCTTGGGTTCTAACCTGTTGCTTCC [AGGCGGTCTAA_LTGcore_CT_RTGcore_GG] (site AGGCGGTCTAA) (LTG core: CT, RTG core: GG)”, the “recombinant barcode read abundance (log10)” value came out at 0.0963.

In the case of “AGGCGGTCTTGGGTTCTAACCTGTTGCTTGT [AGGCGGTCTAA_LTGcore_CT_RTGcore_AC] (site AGGCGGTCTAA) (LTG core: CT, RTG core: AC)”, the “recombinant barcode read abundance (log10)” value was 0.127.

For the sequence “AGGCGGTCTTGGGTTCTAACCTGTTGCTTTT [AGGCGGTCTAA_LTGcore_CT_RTGcore_AA] (site AGGCGGTCTAA) (LTG core: CT, RTG core: AA)”, the “recombinant barcode read abundance (log10)” value came to 0.0668.

On to “AGGCGGTGCTGGGTTCTAACCTGTTGCTTAG [AGGCGGTCTAA_LTGcore_GC_RTGcore_CT] (site AGGCGGTCTAA) (LTG core: GC, RTG core: CT)”, for which the “recombinant barcode read abundance (log10)” value was determined as 0.419.

As for “AGGCGGTGTTGGGTTCTAACCTGTTGCTTAG [AGGCGGTCTAA_LTGcore_GT_RTGcore_CT] (site AGGCGGTCTAA) (LTG core: GT, RTG core: CT)”, the “recombinant barcode read abundance (log10)” value is 0.203.

Regarding “AGGCGGTTGTGGGTTCTAACCTGTTGCTTAG [AGGCGGTCTAA_LTGcore_TG_RTGcore_CT] (site AGGCGGTCTAA) (LTG core: TG, RTG core: CT)”, the “recombinant barcode read abundance (log10)” value came to 0.113.
